Laboratory results from ChEMBL document CHEMBL1201862, “PubChem BioAssay data set” (2004).
Where a name gives a salt, the structure may show the parent alone.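 Cultured in 96-well plates, cells were exposed to test compound for 48 hours across five concentrations. GI50 is the concentration that inhibits growth by half.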 Activity calls are given as the source filed them. Rule as the data show it: active = GI50 up to about 1.1 µM and inactive = higher. Residues, ends and D or L forms follow the SMILES beside them. *: point of attachment. Tfa = O=C(C(F)(F)F)*

What was measured:
Assay in all cases: NCI-60 cell line screen, 48 h
OVCAR-3 = system: OVCAR-3
TK-10 = system: TK-10
SNB-19 = system: SNB-19
HCT-116 = system: HCT-116
SN12C = system: SN12C
786-0 = system: 786-0
OVCAR-5 = system: OVCAR-5
MCF7 = system: MCF7
NCI-H226 = system: NCI-H226
SNB-75 = system: SNB-75
NCI-H23 = system: NCI-H23
MOLT-4 = system: MOLT-4
SK-MEL-2 = system: SK-MEL-2
SK-OV-3 = system: SK-OV-3
EKVX = system: EKVX
T47D = system: T47D
SF-268 = system: SF-268
HCT-15 = system: HCT-15
HT-29 = system: HT-29
CAKI-1 = system: CAKI-1

Compound	GI50 (OVCAR-3)	GI50 (TK-10)	GI50 (SNB-19)	GI50 (HCT-116)	GI50 (SN12C)	GI50 (786-0)	GI50 (OVCAR-5)	GI50 (MCF7)	GI50 (NCI-H226)	GI50 (SNB-75)	GI50 (NCI-H23)	GI50 (MOLT-4)	GI50 (SK-MEL-2)	GI50 (SK-OV-3)	GI50 (EKVX)	GI50 (T47D)	GI50 (SF-268)	GI50 (HCT-15)	GI50 (HT-29)	GI50 (CAKI-1)
O=C1CS(=O)(=O)C(c2cccc(Oc3ccccc3)c2)N1c1cc(Cl)ccc1Cl (stereo unspecified)	19 µM (inactive)	30.1 µM (inactive)	22.4 µM (inactive)	20.2 µM (inactive)	20.7 µM (inactive)	19.2 µM (inactive)	29.6 µM (inactive)	16.1 µM (inactive)	19.2 µM (inactive)	14.6 µM (inactive)	29.1 µM (inactive)	39.3 µM (inactive)	14.4 µM (inactive)	24 µM (inactive)	35.2 µM (inactive)	15.6 µM (inactive)	23.1 µM (inactive)	24.9 µM	20 µM (inactive)	
CCN(CC)CCOC(c1cc(OC)ccc1OC)c1ccc2n1-c1ccccc1OC2 (stereo unspecified)	15.7 µM (inactive)	12.1 µM (inactive)	15.7 µM (inactive)	12.6 µM (inactive)	2.48 µM (inactive)	15.6 µM (inactive)	15.8 µM (inactive)	14.6 µM (inactive)	3.98 µM (inactive)	2.31 µM (inactive)	12.9 µM (inactive)		13.1 µM (inactive)		16.1 µM (inactive)	24 µM (inactive)	14.5 µM (inactive)	11.5 µM	3.41 µM (inactive)	14.9 µM (inactive)
O=C(c1ccc(O)c([N+](=O)[O-])c1)c1ccc(O)c([N+](=O)[O-])c1	> 100 µM (inactive)	> 100 µM (inactive)	> 100 µM (inactive)	> 100 µM (inactive)	> 100 µM (inactive)	> 100 µM (inactive)	> 100 µM (inactive)	93.1 µM (inactive)	> 100 µM (inactive)	28.7 µM (inactive)	> 100 µM (inactive)		> 100 µM (inactive)	> 100 µM (inactive)	> 100 µM (inactive)	> 100 µM (inactive)	> 100 µM (inactive)	> 100 µM	> 100 µM (inactive)	> 100 µM (inactive)
COC(=O)C(=O)C(C(=O)C(=O)Nc1ccccc1C(=O)OC)c1nc2ccc(C(=O)c3ccccc3)cc2nc1O (stereo unspecified)	> 100 µM (inactive)	> 100 µM (inactive)		> 100 µM (inactive)	64.7 µM (inactive)	> 100 µM (inactive)	> 100 µM (inactive)	66.5 µM (inactive)	> 100 µM (inactive)	24.2 µM (inactive)	64.3 µM (inactive)		> 100 µM (inactive)	60.7 µM (inactive)	80.4 µM (inactive)	38.3 µM (inactive)	56.9 µM (inactive)	46.8 µM	41.1 µM (inactive)	30.5 µM (inactive)
COc1ccccc1-n1cnc2c1=NC(C)(C)NC=2C(N)=O	> 100 µM (inactive)	> 100 µM (inactive)	> 100 µM (inactive)	> 100 µM (inactive)	> 100 µM (inactive)	> 100 µM (inactive)	> 100 µM (inactive)	> 100 µM (inactive)	> 100 µM (inactive)	> 100 µM (inactive)	> 100 µM (inactive)		> 100 µM (inactive)	> 100 µM (inactive)	> 100 µM (inactive)	> 100 µM (inactive)	> 100 µM (inactive)	> 100 µM	> 100 µM (inactive)	> 100 µM (inactive)
COc1cc2c(cc1OC)C1=Cc3cc(OC)c(OC)cc3C(C)N1C=C2 (stereo unspecified)	32.1 µM (inactive)	83.4 µM (inactive)	59.4 µM (inactive)	50.2 µM (inactive)	87.5 µM (inactive)	> 100 µM (inactive)	> 100 µM (inactive)	21 µM (inactive)	> 100 µM (inactive)	40 µM (inactive)	> 100 µM (inactive)	35.2 µM (inactive)		> 100 µM (inactive)	> 100 µM (inactive)	29.3 µM (inactive)	21.5 µM (inactive)	69.7 µM	74.3 µM (inactive)	
CC1CNC(c2ccc(COc3ccc(C4=NC(C)CN4)cc3)cc2)=N1 (stereo unspecified)	34.9 µM (inactive)	65.9 µM (inactive)	50.1 µM (inactive)	39.1 µM (inactive)	17.6 µM (inactive)	> 100 µM (inactive)	> 100 µM (inactive)	18.3 µM (inactive)		13.2 µM (inactive)	53.3 µM (inactive)	> 100 µM (inactive)	18.6 µM (inactive)	73.1 µM (inactive)	> 100 µM (inactive)	15.5 µM (inactive)	54.3 µM (inactive)	> 100 µM	> 100 µM (inactive)	> 100 µM (inactive)
CC(C)(C)OC/C=C(\Br)CO	> 100 µM (inactive)		> 100 µM (inactive)	> 100 µM (inactive)	> 100 µM (inactive)	> 100 µM (inactive)	> 100 µM (inactive)	> 100 µM (inactive)	> 100 µM (inactive)	> 100 µM (inactive)	> 100 µM (inactive)	> 100 µM (inactive)	> 100 µM (inactive)	> 100 µM (inactive)	> 100 µM (inactive)	> 100 µM (inactive)	> 100 µM (inactive)	> 100 µM	> 100 µM (inactive)	> 100 µM (inactive)
CCOC(=O)c1cc(NC(=O)N(CCC#N)CCN(C(=O)N[C@@H](Cc2ccccc2)C(=O)N[C@@H](CC(C)C)C(=O)NC)c2ccccc2)ccc1OC	40.9 µM (inactive)	46.5 µM (inactive)	79.4 µM (inactive)	42.4 µM (inactive)	33.7 µM (inactive)	45.3 µM (inactive)	> 100 µM (inactive)	58.6 µM (inactive)	35.5 µM (inactive)	45 µM (inactive)	37.3 µM (inactive)	23.4 µM (inactive)	38.2 µM (inactive)	70 µM (inactive)	63.1 µM (inactive)	28.1 µM (inactive)	48.5 µM (inactive)	57.4 µM		> 100 µM (inactive)
COCn1c2ccc(OC(C)=O)cc2c2c(=O)oc(C)nc21		> 100 µM (inactive)	> 100 µM (inactive)	> 100 µM (inactive)	> 100 µM (inactive)	> 100 µM (inactive)	> 100 µM (inactive)	> 100 µM (inactive)	> 100 µM (inactive)	> 100 µM (inactive)	> 100 µM (inactive)	> 100 µM (inactive)	> 100 µM (inactive)	> 100 µM (inactive)	> 100 µM (inactive)	> 100 µM (inactive)	> 100 µM (inactive)	> 100 µM	0.497 µM (active)	57.7 µM (inactive)
O=C(CC(C(=O)c1ccco1)c1cccs1)c1cccs1 (stereo unspecified)	40.7 µM (inactive)	> 100 µM (inactive)	> 100 µM (inactive)	32.9 µM (inactive)	66.8 µM (inactive)	> 100 µM (inactive)	61.4 µM (inactive)	46.8 µM (inactive)	> 100 µM (inactive)	44.4 µM (inactive)	58.5 µM (inactive)		37.4 µM (inactive)	87.1 µM (inactive)	24.9 µM (inactive)	28.2 µM (inactive)	57.9 µM (inactive)	50.2 µM	37.9 µM (inactive)	> 100 µM (inactive)
CC(C)CC(N)C(=O)NC(C(=O)NC(CCCNC(=N)N)C(=O)NC(CS)C(=O)NC1CSCC(C(=O)NC(Cc2ccccc2)C(=O)NC(C(=O)NC(CCCNC(=N)N)C(=O)O)C(C)C)NC(=O)C2CCCN2C(=O)C(CCCCN)NC(=O)C2CCCN2C(=O)C2CCCN2C(=O)C(Cc2ccc(O)cc2)NC(=O)C(CO)NC(=O)C(CCCCN)NC(=O)C(C(C)O)NC(=O)C(Cc2c[nH]c3ccccc23)NC1=O)C(C)C (stereo unspecified)	> 25 µM (inactive)	> 25 µM (inactive)	> 25 µM (inactive)	> 25 µM (inactive)	> 25 µM (inactive)	> 25 µM (inactive)	> 25 µM (inactive)	> 25 µM (inactive)	> 25 µM (inactive)		> 25 µM (inactive)	> 25 µM (inactive)	> 25 µM (inactive)	> 25 µM (inactive)	> 25 µM (inactive)	> 25 µM (inactive)	> 25 µM (inactive)	> 25 µM	> 25 µM (inactive)	> 25 µM (inactive)
O=C(O)CC(NC(=O)C(F)(F)F)C(=O)NC(Cc1ccc(O)cc1)C(=O)O (stereo not drawn) (Tfa-Asp-Tyr-OH; configuration not given here)	> 50 µM (inactive)	> 50 µM (inactive)	> 50 µM (inactive)		> 50 µM (inactive)	> 50 µM (inactive)	> 50 µM (inactive)	> 50 µM (inactive)	> 50 µM (inactive)	> 50 µM (inactive)	> 50 µM (inactive)	> 50 µM (inactive)	> 50 µM (inactive)	> 50 µM (inactive)	> 50 µM (inactive)	> 50 µM (inactive)	> 50 µM (inactive)	> 50 µM	> 50 µM (inactive)	> 50 µM (inactive)
OB1OCc2ccccc21 [BENZOXABOROLE]	60.4 µM (inactive)	38.9 µM (inactive)	60.8 µM (inactive)	44.4 µM (inactive)	39.7 µM (inactive)	39.7 µM (inactive)		24.9 µM (inactive)	39.5 µM (inactive)		36.7 µM (inactive)	69.8 µM (inactive)	37.2 µM (inactive)	16.1 µM (inactive)		> 100 µM (inactive)	42.2 µM (inactive)	24.7 µM	26.7 µM (inactive)	34.7 µM (inactive)
